Tests used:
[1] = system: Tyrosine-protein kinase ABL1 (Homo sapiens), P00519 [F317L]; settings: Compound concentration 1000.0 nM
[2] = target: Death-associated protein kinase 3 (Homo sapiens) (UniProt O43293); settings: Compound concentration 1000.0 nM
[3] = target: Serine/threonine-protein kinase B-raf (Homo sapiens) (UniProt P15056); settings: Compound concentration 1000.0 nM
[4] = target: Sodium-dependent noradrenaline transporter (Homo sapiens) (UniProt P23975); settings: Compound concentration 10.0 uM
[5] = target: Mitogen-activated protein kinase 12 (Homo sapiens) (UniProt P53778); settings: Compound concentration 1000.0 nM
[6] = system: Epidermal growth factor receptor (Homo sapiens), P00533 [UNDEFINED MUTATION]; settings: Compound concentration 1000.0 nM
[7] = target: Cyclin-dependent kinase 19 (Homo sapiens) (UniProt Q9BWU1); settings: Compound concentration 1000.0 nM
[8] = target: Dual specificity protein kinase CLK1 (Homo sapiens) (UniProt P49759); settings: Compound concentration 1000.0 nM
[9] = target: Cytoplasmic tyrosine-protein kinase BMX (Homo sapiens) (UniProt P51813); settings: Compound concentration 1000.0 nM
[10] = target: G protein-coupled receptor kinase 4 (Homo sapiens) (UniProt P32298); settings: Compound concentration 1000.0 nM
[11] = system: Proto-oncogene tyrosine-protein kinase receptor Ret (Homo sapiens), P07949 [M918T]; settings: Compound concentration 1000.0 nM
[12] = system: Mast/stem cell growth factor receptor Kit (Homo sapiens), P10721 [D816V]; settings: Compound concentration 1000.0 nM
[13] = target: cAMP-dependent protein kinase catalytic subunit PRKX (Homo sapiens) (UniProt P51817); settings: Compound concentration 1000.0 nM
[14] = target: Mitogen-activated protein kinase 3 (Homo sapiens) (UniProt P27361); settings: Compound concentration 1000.0 nM
[15] = target: Receptor tyrosine-protein kinase erbB-3 (Homo sapiens) (UniProt P21860); settings: Compound concentration 1000.0 nM
[16] = target: Cyclin-dependent kinase-like 3 (Homo sapiens) (UniProt Q8IVW4); settings: Compound concentration 1000.0 nM
[17] = target: Inhibitor of nuclear factor kappa-B kinase subunit beta (Homo sapiens) (UniProt O14920); settings: Compound concentration 1000.0 nM
[18] = target: Phosphorylase b kinase regulatory subunit alpha, liver isoform (Homo sapiens) (UniProt P46019); settings: Compound concentration 1000.0 nM
[19] = system: Phosphatidylinositol 4,5-bisphosphate 3-kinase catalytic subunit alpha isoform (Homo sapiens), P42336 [H1047Y]; settings: Compound concentration 1000.0 nM
[20] = target: Mitogen-activated protein kinase 1 (Homo sapiens) (UniProt P28482); settings: Compound concentration 1000.0 nM
[21] = target: Cyclin-dependent kinase 7 (Homo sapiens) (UniProt P50613); settings: Compound concentration 1000.0 nM
[22] = target: Phosphatidylinositol 4-phosphate 3-kinase C2 domain-containing subunit beta (Homo sapiens) (UniProt O00750); settings: Compound concentration 1000.0 nM
[23] = target: cGMP-dependent protein kinase 1 (Homo sapiens) (UniProt Q13976); settings: Compound concentration 1000.0 nM
[24] = target: Calcium/calmodulin-dependent protein kinase type 1B (Homo sapiens) (UniProt Q6P2M8); settings: Compound concentration 1000.0 nM
[25] = target: SNF-related serine/threonine-protein kinase (Homo sapiens) (UniProt Q9NRH2); settings: Compound concentration 1000.0 nM
[26] = target: Alpha-2A adrenergic receptor (Homo sapiens) (UniProt P08913); settings: Compound concentration 10.0 uM
[27] = target: MAP/microtubule affinity-regulating kinase 4 (Homo sapiens) (UniProt Q96L34); settings: Compound concentration 1000.0 nM
[28] = target: Receptor tyrosine-protein kinase erbB-4 (Homo sapiens) (UniProt Q15303); settings: Compound concentration 1000.0 nM
[29] = target: High affinity nerve growth factor receptor (Homo sapiens) (UniProt P04629); settings: Compound concentration 1000.0 nM
[30] = target: Serine/threonine-protein kinase Nek4 (Homo sapiens) (UniProt P51957); settings: Compound concentration 1000.0 nM
[31] = target: Calcium/calmodulin-dependent protein kinase type IV (Homo sapiens) (UniProt Q16566); settings: Compound concentration 1000.0 nM
[32] = target: Mitogen-activated protein kinase 14 (Homo sapiens) (UniProt Q16539); settings: Compound concentration 1000.0 nM
[33] = target: Mitogen-activated protein kinase 6 (Homo sapiens) (UniProt Q16659); settings: Compound concentration 1000.0 nM
[34] = target: D(1B) dopamine receptor (Homo sapiens) (UniProt P21918); settings: Compound concentration 10.0 uM
Cannabinoid receptor 2 = Cannabinoid receptor 2 (Homo sapiens, UniProt P34972); experiment: Radioligand Binding Assay (CNR2)
[35] = target: Serine/threonine-protein kinase DCLK3 (Homo sapiens) (UniProt Q9C098); settings: Compound concentration 1000.0 nM
[36] = target: Serine/threonine-protein kinase D1 (Homo sapiens) (UniProt Q15139); settings: Compound concentration 1000.0 nM
[37] = target: Macrophage colony-stimulating factor 1 receptor (Homo sapiens) (UniProt P07333); settings: Compound concentration 1000.0 nM
[38] = target: Mitogen-activated protein kinase 8 (Homo sapiens) (UniProt P45983); settings: Compound concentration 1000.0 nM
[39] = target: Dual specificity protein kinase CLK4 (Homo sapiens) (UniProt Q9HAZ1); settings: Compound concentration 1000.0 nM
[40] = target: Alpha-2B adrenergic receptor (Homo sapiens) (UniProt P18089); settings: Compound concentration 10.0 uM
[41] = target: Cyclin-dependent kinase 14 (Homo sapiens) (UniProt O94921); settings: Compound concentration 1000.0 nM
[42] = target: Phosphorylase b kinase gamma catalytic chain, skeletal muscle/heart isoform (Homo sapiens) (UniProt Q16816); settings: Compound concentration 1000.0 nM
[43] = target: 3-phosphoinositide-dependent protein kinase 1 (Homo sapiens) (UniProt O15530); settings: Compound concentration 1000.0 nM
[44] = target: Tyrosine-protein kinase Tec (Homo sapiens) (UniProt P42680); settings: Compound concentration 1000.0 nM

G protein-coupled receptor kinase 4 (Homo sapiens), sequence (P32298 whole entry, looked up): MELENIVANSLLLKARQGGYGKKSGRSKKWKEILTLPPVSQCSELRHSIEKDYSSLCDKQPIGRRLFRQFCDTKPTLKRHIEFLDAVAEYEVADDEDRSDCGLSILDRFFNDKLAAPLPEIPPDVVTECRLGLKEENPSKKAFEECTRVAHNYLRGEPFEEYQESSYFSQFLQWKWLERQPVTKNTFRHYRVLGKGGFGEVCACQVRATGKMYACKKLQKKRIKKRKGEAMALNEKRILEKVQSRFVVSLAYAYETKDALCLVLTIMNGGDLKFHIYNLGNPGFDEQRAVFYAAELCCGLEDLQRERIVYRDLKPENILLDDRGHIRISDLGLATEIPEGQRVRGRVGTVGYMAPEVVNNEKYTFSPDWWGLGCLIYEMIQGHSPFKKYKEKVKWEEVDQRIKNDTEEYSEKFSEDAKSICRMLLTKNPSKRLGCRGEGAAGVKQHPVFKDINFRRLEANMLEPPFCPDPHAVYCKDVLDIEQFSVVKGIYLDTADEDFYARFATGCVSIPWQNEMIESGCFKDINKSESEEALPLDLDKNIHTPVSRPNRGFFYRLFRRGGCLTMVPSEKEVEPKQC
Proto-oncogene tyrosine-protein kinase receptor Ret (Homo sapiens), P07949 [M918T], sequence (P07949 whole entry M918T): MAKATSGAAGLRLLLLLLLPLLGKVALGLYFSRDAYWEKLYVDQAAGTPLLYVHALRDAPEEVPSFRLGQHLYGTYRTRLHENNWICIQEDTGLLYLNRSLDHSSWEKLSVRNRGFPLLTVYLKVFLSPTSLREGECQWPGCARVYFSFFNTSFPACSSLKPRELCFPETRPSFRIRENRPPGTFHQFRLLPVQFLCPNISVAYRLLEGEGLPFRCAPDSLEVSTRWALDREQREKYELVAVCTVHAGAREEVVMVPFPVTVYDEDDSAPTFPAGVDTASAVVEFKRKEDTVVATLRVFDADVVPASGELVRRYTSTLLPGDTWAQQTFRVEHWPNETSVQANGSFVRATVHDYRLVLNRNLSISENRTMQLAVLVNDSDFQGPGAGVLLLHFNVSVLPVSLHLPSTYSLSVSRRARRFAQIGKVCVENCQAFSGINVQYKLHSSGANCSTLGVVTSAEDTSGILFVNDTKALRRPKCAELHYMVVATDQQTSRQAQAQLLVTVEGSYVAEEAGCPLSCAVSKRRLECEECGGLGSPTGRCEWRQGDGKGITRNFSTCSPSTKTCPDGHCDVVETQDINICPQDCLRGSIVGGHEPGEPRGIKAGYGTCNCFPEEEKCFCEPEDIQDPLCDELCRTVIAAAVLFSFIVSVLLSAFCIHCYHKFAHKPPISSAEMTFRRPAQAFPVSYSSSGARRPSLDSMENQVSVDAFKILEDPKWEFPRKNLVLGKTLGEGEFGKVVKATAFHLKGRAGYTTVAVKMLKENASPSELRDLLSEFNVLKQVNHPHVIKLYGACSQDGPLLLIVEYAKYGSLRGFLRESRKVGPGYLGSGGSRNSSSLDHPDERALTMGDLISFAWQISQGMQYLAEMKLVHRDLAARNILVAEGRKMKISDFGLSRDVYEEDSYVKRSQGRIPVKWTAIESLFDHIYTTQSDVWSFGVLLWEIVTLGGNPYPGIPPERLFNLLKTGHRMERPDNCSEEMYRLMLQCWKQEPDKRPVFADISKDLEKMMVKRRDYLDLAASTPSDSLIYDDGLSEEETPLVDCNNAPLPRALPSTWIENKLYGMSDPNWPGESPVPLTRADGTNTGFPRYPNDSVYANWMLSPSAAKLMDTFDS
Phosphatidylinositol 4-phosphate 3-kinase C2 domain-containing subunit beta (Homo sapiens), sequence (O00750 whole entry, the tested form may be a part): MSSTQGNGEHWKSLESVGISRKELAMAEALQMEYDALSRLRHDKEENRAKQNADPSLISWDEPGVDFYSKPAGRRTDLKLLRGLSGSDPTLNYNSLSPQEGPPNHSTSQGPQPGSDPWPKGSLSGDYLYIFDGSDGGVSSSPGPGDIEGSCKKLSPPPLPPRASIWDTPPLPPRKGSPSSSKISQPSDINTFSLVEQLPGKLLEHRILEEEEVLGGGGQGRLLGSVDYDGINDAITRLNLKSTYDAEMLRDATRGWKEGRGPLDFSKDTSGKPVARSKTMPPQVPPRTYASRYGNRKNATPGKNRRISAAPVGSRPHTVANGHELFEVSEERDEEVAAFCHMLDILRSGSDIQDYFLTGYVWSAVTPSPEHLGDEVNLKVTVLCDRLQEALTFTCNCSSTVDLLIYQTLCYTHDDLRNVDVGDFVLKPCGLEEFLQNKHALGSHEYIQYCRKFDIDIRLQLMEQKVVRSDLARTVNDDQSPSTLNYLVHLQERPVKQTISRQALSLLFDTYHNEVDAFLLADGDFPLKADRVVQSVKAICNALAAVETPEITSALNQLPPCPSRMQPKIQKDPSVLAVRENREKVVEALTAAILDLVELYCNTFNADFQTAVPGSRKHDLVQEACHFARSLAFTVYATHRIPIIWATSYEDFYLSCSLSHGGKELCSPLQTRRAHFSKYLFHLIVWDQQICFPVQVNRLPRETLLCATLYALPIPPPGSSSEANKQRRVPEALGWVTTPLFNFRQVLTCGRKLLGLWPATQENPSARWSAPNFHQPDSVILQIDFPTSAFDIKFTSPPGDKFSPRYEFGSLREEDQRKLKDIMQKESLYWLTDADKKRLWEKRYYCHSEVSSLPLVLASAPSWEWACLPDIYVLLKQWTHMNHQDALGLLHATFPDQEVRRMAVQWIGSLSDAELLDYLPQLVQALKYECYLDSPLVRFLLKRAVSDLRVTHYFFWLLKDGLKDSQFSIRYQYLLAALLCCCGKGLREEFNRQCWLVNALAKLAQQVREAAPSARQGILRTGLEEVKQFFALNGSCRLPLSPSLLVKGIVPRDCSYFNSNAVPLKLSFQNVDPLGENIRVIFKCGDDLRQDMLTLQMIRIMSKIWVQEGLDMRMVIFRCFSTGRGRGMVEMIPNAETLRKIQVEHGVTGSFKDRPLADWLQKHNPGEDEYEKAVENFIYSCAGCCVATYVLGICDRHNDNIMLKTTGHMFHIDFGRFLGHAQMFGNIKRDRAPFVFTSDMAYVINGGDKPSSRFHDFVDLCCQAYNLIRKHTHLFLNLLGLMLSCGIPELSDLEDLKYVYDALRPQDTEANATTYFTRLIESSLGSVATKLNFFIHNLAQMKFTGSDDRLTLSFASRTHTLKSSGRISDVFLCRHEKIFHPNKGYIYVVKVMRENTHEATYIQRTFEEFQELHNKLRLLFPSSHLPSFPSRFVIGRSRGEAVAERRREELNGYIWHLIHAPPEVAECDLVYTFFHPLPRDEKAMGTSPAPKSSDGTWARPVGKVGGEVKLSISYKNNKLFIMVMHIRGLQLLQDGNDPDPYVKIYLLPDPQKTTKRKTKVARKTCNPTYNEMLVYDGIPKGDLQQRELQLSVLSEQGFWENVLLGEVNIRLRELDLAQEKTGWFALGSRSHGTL
Cytoplasmic tyrosine-protein kinase BMX (Homo sapiens), sequence (P51813 whole entry): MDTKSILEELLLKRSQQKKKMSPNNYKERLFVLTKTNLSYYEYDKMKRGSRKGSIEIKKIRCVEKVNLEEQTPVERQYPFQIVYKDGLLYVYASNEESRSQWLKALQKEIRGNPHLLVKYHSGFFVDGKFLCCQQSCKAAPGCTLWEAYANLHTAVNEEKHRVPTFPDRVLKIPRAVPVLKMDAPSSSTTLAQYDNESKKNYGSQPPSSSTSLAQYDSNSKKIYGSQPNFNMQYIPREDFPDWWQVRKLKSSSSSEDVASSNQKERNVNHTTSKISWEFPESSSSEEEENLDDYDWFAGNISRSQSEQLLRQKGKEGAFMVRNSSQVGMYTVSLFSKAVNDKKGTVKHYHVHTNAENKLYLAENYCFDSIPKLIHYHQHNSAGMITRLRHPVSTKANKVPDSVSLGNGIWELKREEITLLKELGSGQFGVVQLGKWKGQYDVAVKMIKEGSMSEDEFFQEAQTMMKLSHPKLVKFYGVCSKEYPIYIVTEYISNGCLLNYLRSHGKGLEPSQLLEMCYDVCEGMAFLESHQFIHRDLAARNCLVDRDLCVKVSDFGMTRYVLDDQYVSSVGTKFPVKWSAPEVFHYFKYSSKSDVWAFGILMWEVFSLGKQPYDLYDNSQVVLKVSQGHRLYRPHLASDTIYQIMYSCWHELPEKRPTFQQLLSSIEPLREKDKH
Mast/stem cell growth factor receptor Kit (Homo sapiens), P10721 [D816V], sequence (P10721 whole entry D816V): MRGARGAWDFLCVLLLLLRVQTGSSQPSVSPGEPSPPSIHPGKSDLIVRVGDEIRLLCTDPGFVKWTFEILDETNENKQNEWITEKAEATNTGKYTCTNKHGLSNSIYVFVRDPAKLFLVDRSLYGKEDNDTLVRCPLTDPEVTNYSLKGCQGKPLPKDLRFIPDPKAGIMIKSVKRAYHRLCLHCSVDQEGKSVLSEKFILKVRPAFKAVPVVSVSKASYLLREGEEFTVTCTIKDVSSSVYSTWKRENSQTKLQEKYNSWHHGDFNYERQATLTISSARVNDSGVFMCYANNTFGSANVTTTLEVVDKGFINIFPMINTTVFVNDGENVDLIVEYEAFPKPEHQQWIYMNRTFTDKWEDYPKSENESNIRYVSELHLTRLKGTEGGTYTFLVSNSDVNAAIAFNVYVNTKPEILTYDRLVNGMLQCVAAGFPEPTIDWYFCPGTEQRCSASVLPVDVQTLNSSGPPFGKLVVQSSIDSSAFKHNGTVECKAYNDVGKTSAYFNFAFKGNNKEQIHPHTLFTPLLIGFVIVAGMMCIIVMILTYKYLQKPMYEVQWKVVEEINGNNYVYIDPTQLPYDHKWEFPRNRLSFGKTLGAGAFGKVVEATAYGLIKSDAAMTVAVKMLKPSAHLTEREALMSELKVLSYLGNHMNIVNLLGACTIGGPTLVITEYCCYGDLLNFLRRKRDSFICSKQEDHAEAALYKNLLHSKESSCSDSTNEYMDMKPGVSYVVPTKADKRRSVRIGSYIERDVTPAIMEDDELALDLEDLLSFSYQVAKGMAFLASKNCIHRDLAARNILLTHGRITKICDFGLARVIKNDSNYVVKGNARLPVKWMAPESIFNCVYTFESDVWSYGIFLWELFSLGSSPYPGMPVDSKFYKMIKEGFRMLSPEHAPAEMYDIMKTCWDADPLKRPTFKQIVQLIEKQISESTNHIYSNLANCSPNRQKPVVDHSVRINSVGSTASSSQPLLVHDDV

CC(=O)Nc1c(C(C)=O)c(=O)n(C)c2nc(-c3ccc(Cl)cc3Cl)c(-c3ccc(Cl)cc3)cc12 [NAPHTHYRIDINONE]
inactive: residual activity [1] 100% | residual activity [2] 100% | residual activity [3] 100% | inhibition [4] 15.5% | residual activity [5] 100% | residual activity [6] 86% | residual activity [7] 100% | residual activity [8] 100% | residual activity [9] 100% | residual activity [10] 100% | residual activity [11] 100% | residual activity [12] 100% | residual activity [13] 100% | residual activity [14] 100% | residual activity [15] 100% | residual activity [16] 100% | residual activity [17] 100% | residual activity [18] 100% | residual activity [19] 100% | residual activity [20] 100% | residual activity [21] 100% | residual activity [23] 100% | residual activity [24] 100% | residual activity [25] 78% | inhibition [26] 1.31% | residual activity [27] 100% | residual activity [28] 91% | residual activity [29] 100% | residual activity [30] 100% | residual activity [31] 100% | residual activity [32] 100% | residual activity [33] 100% | inhibition [34] 5.24% | residual activity [35] 100% | residual activity [36] 100% | residual activity [37] 100% | residual activity [38] 71% | residual activity [39] 100% | inhibition [40] 16.6% | residual activity [41] 100% | residual activity [42] 100% | residual activity [43] 100% | residual activity [44] 100%
active: residual activity [22] 48%
4.63 µM (not active): IC50 (Cannabinoid receptor 2)

CC(=O)c1c(NS(C)(=O)=O)c2cc(-c3ccc(Cl)cc3)c(-c3ccc(Cl)cc3Cl)nc2n(C)c1=O [MRL-CB1-NC]
inactive: residual activity [1] 75% | residual activity [2] 100% | residual activity [3] 90% | inhibition [4] 20.2% | residual activity [5] 100% | residual activity [6] 90% | residual activity [7] 100% | residual activity [8] 100% | residual activity [9] 100% | residual activity [10] 94% | residual activity [11] 100% | residual activity [12] 100% | residual activity [13] 97% | residual activity [14] 100% | residual activity [15] 85% | residual activity [16] 100% | residual activity [17] 98% | residual activity [18] 100% | residual activity [19] 96% | residual activity [20] 100% | residual activity [21] 82% | residual activity [22] 100% | residual activity [23] 75% | residual activity [24] 100% | residual activity [25] 98% | inhibition [26] 19.8% | residual activity [27] 100% | residual activity [28] 100% | residual activity [29] 64% | residual activity [30] 100% | residual activity [31] 100% | residual activity [32] 100% | residual activity [33] 100% | inhibition [34] 44.5% | Inverse agonism (Cannabinoid receptor 2) 38.3% | residual activity [35] 100% | residual activity [36] 100% | residual activity [37] 100% | residual activity [38] 63% | residual activity [39] 100% | residual activity [41] 100% | residual activity [42] 94% | residual activity [43] 100% | residual activity [44] 100%
active: inhibition [40] 67.2%
